Results as given in patent EP0019589A1, “Tripeptide derivatives and their use in a process for determining enzymes” (Pentapharm A.G., priority 1979, dated 1980).
Non-standard residues stand in square brackets, D forms with d. Residues, ends and D or L forms follow the SMILES beside them. *: point of attachment. Cha = N[C@@H](CC1CCCCC1)C(=O)O; dCha = N[C@H](CC1CCCCC1)C(=O)O; dChg = N[C@@H](C(=O)O)C1CCCCC1; pNA = O=[N+]([O-])c1ccc(N*)cc1; Phg = N[C@H](C(=O)O)c1ccccc1; Nva = CCC[C@H](N)C(=O)O

Key:
Type in all cases: biochemical
[1] = biological target: T1, Submandibularis-Kallikrein (Homo sapiens, UniProt P06870); assay: Cleavage of chromogenic substrate by submandibular (glandular) kallikrein in human sputum; conditions: 1 ml human sputum, per min; Substratkonzentration 2 x 10^-4 molar
T1 construct: Man mischt 0,5 ml Sputum mit 2 ml TRIS-Imidazol-Puffer; from tissue; host or cells: human sputum
Protocol: 2. Bestimmung des Glandulärkallikreins im Sputum: • Man mischt 0,5 ml Sputum mit 2 ml TRIS-Imidazol-Puffer (Ionenstärke 1,0) und präinkubiert die Mischung 5 Min. bei 37°C. Das Inkubat wird zentrifugiert. In eine Testküvette wird 1,5 ml dest. H2O von 37°C vorgelegt und mit 0,25 ml des Zentrifugats versetzt. Die Komponenten werden gut gemischt. Dann wird 0,2 ml 2 x 10-^3 molare wässrige Substratlösung zugesetzt und gemischt. Dann wird bei 405 nm die Extinktions- änderung kontinuierlich mittels eines Schreibers während 5-10 Min. verfolgt. Aus dem ermittelten Δ OD pro Min. wird mittels der nachstehenden Formel die Kallikreinaktivität pro ml Sputum in mU errechnet: [formula] • F = 5 • V = 1,95 • v = 0,25 • 1 U (Einheit) = Enzymmenge, die während 1 Min. 1 µMol Substrat unter optimalen oder sonst festgelegten Bedingungen in Bezug auf pH, Ionenstärke, Temperatur und Substratkonzentration zu spalten vermag
Bei der Messung des durch die enzymatische Hydrolyse des Substrates gebildeten Spaltproduktes RrNH2 geht man von der Voraussetzung aus, dass das Spaltprodukt ein UV-Spektrum besitzt, das von demjenigen des Substrates verschieden und in Richtung höherer Wellenlängen verschoben ist. Die Absorption des Substrates bei 405 nm ist praktisch Null. p-Nitroanilin als Spaltprodukt weist ein Absorptionsmaximum bei 380 nm und einen molaren Extinktionskoeffizienten von 13'200 auf. Bei 405 nm ist der Extinktionskoeffizient nur wenig niedriger, d.h. […] Der Grad der enzymatischen Hydrolyse des Substrates, welcher der Menge des abgespaltenen p-Nitroanilins proportional ist, lässt sich durch spektrophotometrische Messung bei 405 nm bestimmen. Auch bei Anwesenheit eines Ueberschusses an Substrat wird die Messung bei 405 nm nicht gestört. […]

Humanthrombin = biological target: T2, Humanthrombin (Homo sapiens, UniProt P00734); assay: Cleavage of chromogenic substrate by human NIH thrombin; conditions: 1 NIH-Einheit human thrombin, per min; Substratkonzentration 2 x 10^-4 molar
T2 construct: Humanplasmin und hu-manem NIH-Thrombin
From the text: (§1) Bei der Messung des durch die enzymatische Hydrolyse des Substrates gebildeten Spaltproduktes RrNH2 geht man von der Voraussetzung aus, dass das Spaltprodukt ein UV-Spektrum besitzt, das von demjenigen des Substrates verschieden und in Richtung höherer Wellenlängen verschoben ist. Die Absorption des Substrates bei 405 nm ist praktisch Null. p-Nitroanilin als Spaltprodukt weist ein Absorptionsmaximum bei 380 nm und einen molaren Extinktionskoeffizienten von 13'200 auf. Bei 405 nm ist der Extinktionskoeffizient nur wenig niedriger, d.h. […] Der Grad der enzymatischen Hydrolyse des Substrates, welcher der Menge des abgespaltenen p-Nitroanilins proportional ist, lässt sich durch spektrophotometrische Messung bei 405 nm bestimmen. Auch bei Anwesenheit eines Ueberschusses an Substrat wird die Messung bei 405 nm nicht gestört.
(§2) Bei den Substraten, die als chromogene Gruppe eine 2-Naphthylamino-, 4-Methoxy-2-naphthylamino-, 4-Methyl-cumaryl-(7)-amino- oder 1,3-Di(methoxycarbonyl)-phenyl-(5)-amino-Gruppe enthalten, wird die Menge des Spaltproduktes R-NH2 durch Fluoreszenzspektrophotometrie gemessen. In einem aus Enzym, Puffer und Substrat bestehenden Testsystem misst man kontinuierlich das energieärmere emittierte Licht bei 400-470 nm, nachdem man das gebildete fluoreszierende Spaltprodukt mit energiereicherem Licht erregt hat. Die pro Zeiteinheit gebildete Menge Spaltprodukt ist ein Mass für die vorhandene Enzymaktivität. 1 µMol Spaltprodukt pro Minute entspricht definitionsgemäss 1 Enzym-Einheit, bezogen auf ein gegebenes Substrat.

Urinkallikrein = biological target: T3, Urinkallikrein (Homo sapiens, UniProt P06870); assay: Cleavage of chromogenic substrate by urinary kallikrein in human urine; conditions: 1 ml human urine (pooled morning urine of healthy persons), per min; Substratkonzentration 2 x 10^-4 molar
T3 construct: 1 ml Urin und 1 ml TRIS-Imidazol-Puffer mit pH 7,9; from tissue; host or cells: human urine
Protocol: 1. Bestimmung von Urinkallikrein.
1 ml Urin und 1 ml TRIS-Imidazol-Puffer mit pH 7,9 und Ionenstärke 1,0 werden 5 Min. bei 37°C inkubiert undcänn zentrifugiert, um Sedimente zu entfernen.
In einer-Plastikküvette werden 1,4 ml dest. H20 von 37°C und 0,4 ml des Zentrifugats gut gemischt. Zu dieser Mischung gibt man 0,2 ml einer 2 x 10^-3 molaren wässrigen Substratlösung und durchmischt die Komponenten schnell. Dieses Gemisch wird genau 15 Min. bei 37°C inkubiert. Dann wird dem Reaktionsgemisch 0,2 ml Eisessig zugemischt, um die Enzymreaktion zu unterbrechen. Zur Farbmessung verwendet man eine Vergleichsprobe (Blindprobe), die aus den gleichen Komponenten zusammengesetzt ist, wobei jedoch der Eisessig vor Zugabe des Substrates zugesetzt wird, um die Enzymreaktion zu verhindern. Dann wird bei 405 nm photometrisch oder spektrophotometrisch die Menge der gebildeten farbigen Verbindung RNH 2 aus der Differenz zwischen der Blindprobe und der zu bestimmenden Probe ermittelt. Aus dem ermittelten Wert wird die Urinkallikreinaktivität im Urin nach der folgenden Formel berechnet: [formula] • Δ OD = Zunahme der optischen Dichte bei 405 nm während 15 Min. • V = Totalvolumen des Bestimmungsansatzes = 2,2 ml • 1000 = Umrechnungsfaktor zur Umwandlung von U in mU • F = Verdünnungsfaktor des Urins (2) • v = Volumen der Probe = 0,4 ml • ε = Extinktionskoeffizient dividiert durch 1000 = 10,4
Bei der oben beschriebenen Bestimmungsmethode misst man somit die Summe der Aktivitäten von Urinkallikrein und Urokinase. Um die genaue Urinkallikreinaktivität zu erhalten, muss man die Urokinaseaktivität abziehen, welche dadurch bestimmt werden kann, dass man in einem Vergleichsversuch durch Zugabe von 0,075 Einheiten Trypsininhibitor (Trypsininhibitor aus Rinderlunge) pro ml Puffer die Urinkallikreinaktivität vollständig hemmt und nur die Urokinaseaktivität misst.
as §1, §2

Humanplasmin = biological target: T4, Humanplasmin (Homo sapiens, UniProt P00747); assay: Cleavage of chromogenic substrate by human plasmin; conditions: 1 CU-Einheit human plasmin, per min; Substratkonzentration 2 x 10^-4 molar
T4 construct: da bei der Aktivierung aus 1 Molekül Plasminogen 1 Molekül Plasmin entsteht
Protocol: 3. Bestimmung von Plasmin:
Man mischt 1,7 ml TRIS-Imidazol-Puffer (pH 7,5, Ionenstärke 0,2) bei 37°C mit 0,1 ml einer Lösung von Plasmin in 25%igem Glycerin und inkubiert die Mischung während 1 Min. bei 37°C. Dann gibt man der Mischung 0,2 ml einer wässrigen 2 x 10^-3 molaren Substxatlösung von 37°C zu und durchmischt das Ganze schnell. Man ermittelt dann kontinuierlich die pro Zeiteinheit aus dem Substrat freigesetzte Menge des Spaltproduktes R-NH2. Aus dem pro Min. ermittelten Wert berechnet man dann die Plasminaktivität pro ml Probe in mU nach der folgenden Formel: [formula] • ΔE = pro Min. freigesetzte Menge des Spaltproduktes • V = Totalvolumen des Testansatzes • v = Volumen der Probe • = Extinktionskoeffizient dividiert durch 1000
as §1, §2

T3 sequence (P06870 25-262): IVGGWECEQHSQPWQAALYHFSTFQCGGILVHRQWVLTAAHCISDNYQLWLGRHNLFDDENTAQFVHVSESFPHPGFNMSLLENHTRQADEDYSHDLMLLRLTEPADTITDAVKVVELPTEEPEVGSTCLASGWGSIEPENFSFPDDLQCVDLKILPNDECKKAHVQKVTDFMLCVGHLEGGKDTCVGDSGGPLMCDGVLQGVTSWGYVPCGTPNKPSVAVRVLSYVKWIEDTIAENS
T1 sequence (P06870 25-262): as above
T4 sequence (P00747 581-810 limits assumed): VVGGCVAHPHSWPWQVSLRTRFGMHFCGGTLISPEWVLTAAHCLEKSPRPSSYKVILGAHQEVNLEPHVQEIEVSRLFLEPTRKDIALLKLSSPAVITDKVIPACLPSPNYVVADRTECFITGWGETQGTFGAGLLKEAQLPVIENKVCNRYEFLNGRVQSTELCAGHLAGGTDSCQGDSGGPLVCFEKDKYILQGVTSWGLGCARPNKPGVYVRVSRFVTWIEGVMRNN
T4 sequence (P00747 97-580 partner limits assumed): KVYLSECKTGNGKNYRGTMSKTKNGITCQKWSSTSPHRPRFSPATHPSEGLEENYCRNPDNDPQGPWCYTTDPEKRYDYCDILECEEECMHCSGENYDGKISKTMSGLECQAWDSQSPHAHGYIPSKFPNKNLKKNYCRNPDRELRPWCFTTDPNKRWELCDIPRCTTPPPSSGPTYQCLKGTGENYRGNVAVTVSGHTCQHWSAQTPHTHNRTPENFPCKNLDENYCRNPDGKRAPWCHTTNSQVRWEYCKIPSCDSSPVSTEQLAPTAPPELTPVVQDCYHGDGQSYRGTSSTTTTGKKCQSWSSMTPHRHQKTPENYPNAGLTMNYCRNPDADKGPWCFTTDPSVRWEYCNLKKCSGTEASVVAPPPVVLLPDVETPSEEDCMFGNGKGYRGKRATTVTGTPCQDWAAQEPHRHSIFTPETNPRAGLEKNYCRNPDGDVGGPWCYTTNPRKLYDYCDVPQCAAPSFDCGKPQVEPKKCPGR

Compound | Menge des durch 1 ml Humansputum pro Min. freigesetzten Spaltproduktes R-NH2 in Nanomol (Submandibularis-Kallikrein) [1] | Menge des durch 1 NIH-Einheit Thrombin pro Min. freigesetzten Spaltproduktes R-NH2 in Nanomol (Humanthrombin) (Humanthrombin) | Menge des durch 1 ml Humanurin pro Min. freigesetzten Spaltproduktes R-NH2 in Nanomol (Urinkallikrein) (Urinkallikrein) | Menge des durch 1 CU-Einheit Humanplasmin pro Min. freigesetzten Spaltproduktes R-NH2 in Nanomol (Humanplasmin) (Humanplasmin)
2HBr.H-D-CHT-Tyr-Arg-pNA [Beispiel 45] | 10,9 Nanomol | 9,5 Nanomol | 0,59 Nanomol | 1252 Nanomol
NCCCC[C@H](NC(=O)[C@@H]1CCCN1C(=O)[C@H](N)CC1CCCCC1)C(=O)Nc1ccc([N+](=O)[O-])cc1 [Beispiel 29, 2AcOH.H-D-CHA-Pro-Lys-pNA] (H-[dCha]-Pro-Lys-pNA) | 4,4 Nanomol | 4,54 Nanomol | 0,71 Nanomol | 639 Nanomol
CC(C)C[C@@H](N)C(=O)N[C@H](C(=O)N[C@@H](CCCNC(=N)N)C(=O)Nc1ccc([N+](=O)[O-])cc1)c1ccccc1 [Beispiel 53, 2HBr.H-D-Leu-Ph'Gly-Arg-pNA] (H-[dL]-[Phg]-Arg-pNA) | 25,8 Nanomol | 27,4 Nanomol | 0,67 Nanomol | 422 Nanomol
CCC[C@H](NC(=O)[C@H](N)C1CCCCC1)C(=O)N[C@@H](CCCNC(=N)N)C(=O)Nc1ccc([N+](=O)[O-])cc1 [Beispiel 70, 2HBr.H-D-CHG-Nval-Arg-pNA] (H-[dChg]-[Nva]-Arg-pNA) | 24,2 Nanomol | 67,4 Nanomol | 0,38 Nanomol | 488 Nanomol
NCCCC[C@H](NC(=O)[C@H](CC1CCCCC1)NC(=O)[C@H](N)C1CCCCC1)C(=O)Nc1ccc([N+](=O)[O-])cc1 [Beispiel 20, 2HBr.H-D-CHG-CHA-Lys-pNA] (H-[dChg]-[Cha]-Lys-pNA) | 4,4 Nanomol | 0,99 Nanomol | 0,28 Nanomol | 500 Nanomol
N=C(N)NCCC[C@H](NC(=O)[C@H](CC1CCC(O)CC1)NC(=O)[C@H]1CCCN1)C(=O)Nc1ccc([N+](=O)[O-])cc1 (stereo partly drawn) [Beispiel 25, 2HBr.H-D-Pro-CHT-Arg-pNA] | 10,7 Nanomol | 1,52 Nanomol | 0,52 Nanomol | 390 Nanomol
